Results published in patent publication US10668056B2, “Pharmaceutical composition comprising indole derivatives, process for preparation and use thereof” (VIVOLUX AB, priority 2015, dated 2020).
Read-outs that look alike come from different tables or passages of the source.

Experiments:
[1] = system: CCRF-CEM (Acute lymphoblastic leukemia); assay: FMCA cytotoxicity, CCRF-CEM; assay type: cell-based, human; settings: 72 h
Description: (§1) The inventors also set out to characterize activity of the compounds A, B and C in cell lines representing cancer of different origin. The specific assays used and the conclusions from the mechanistic evaluation have previously been described in detail (Zhang et al. 2014). Compounds A, B and C (See FIG. 4) were evaluated for cytotoxicity expressed as survival index (SI) in six human tumor cell lines using the cell based fluorometric micro culture cytotoxicity assay (FMCA) as previously described in detail (Lindhagen et al, 2008). The method is based on measurement of fluorescent fluorescein, generated from hydrolysis of FDA by viable cells with intact plasma membrane. The fluorescence is proportional to the number of intact viable cells.
(§2) The cell lines were cultivated in the respective cell medium recommended by the provider. The medium was supplemented with 10% heat-inactivated fetal bovine serum, 2 mmol/L L-glutamine, 100 μg/mL streptomycin and 100 U/mL penicillin (all from Sigma-Aldrich). The cell line was cultured at 37° C. in a humidified atmosphere containing 5% CO2.
(§3) FMCA analysis in brief, 2500 cells per well were seeded into 384-well microplates and incubated over night before treatment with compounds. Compounds were added using acoustic liquid transfer (Echo 550, LabCyte). The plates were incubated at 37° C. for 72 h, and then washed and FDA was added to the wells followed by 50 min of incubation at 37° C. The fluorescence, which is proportional to the number of living cells in each well, was measured at 485/520 nm in a Fluoroskan instrument (Labsystems, GMI, Ramsey, Minn.). Cell survival is presented as Survival Index (SI), defined as the fluorescence value in the compound-treated wells analysed as percentage of the value in the control wells, with blank values subtracted. Quality criteria included a signal/blank ratio >10 and a coefficient of variation (CV) in control and blank wells <30%. Graph Pad Prism (San Diego, Calif., USA). All experiments were performed twice, and each concentration was evaluated in quadruplicates in each experiment. […]

HCT116 (Colon carcinoma) = assay: FMCA cytotoxicity, HCT116; assay type: cell-based, human; settings: 72 h
Description: as §1, §2, §3

[2] = system: THP-1 (Acute Monocytic Leukemia); assay: FMCA cytotoxicity, THP-1; assay type: cell-based, human; settings: 72 h
Description: as §1, §2, §3

[3] = system: HeLa (Cervix Adenocarcinoma); assay: FMCA cytotoxicity, HeLa; assay type: cell-based, human; settings: 72 h
Description: as §1, §2, §3

[4] = system: HepG2 (Hepatocellular Carcinoma); assay: FMCA cytotoxicity, HepG2; assay type: cell-based, human; settings: 72 h
Description: as §1, §2, §3

[5] = system: six human tumor cell lines; assay: FMCA cytotoxicity, six human tumor cell lines (overall); assay type: cell-based; settings: Table 6 and FIG. 4
Description: as §1, §2, §3

[6] = system: primary human tumor cell cultures, Gastric; settings: 9 patients analyzed, 72 h
Description: (§4) Cells were seeded in the drug-prepared 384-well plates using the pipetting robot Precision 2000 (Bio-Tek Instruments Inc., Winooski, Vt.).

[7] = system: primary human tumor cell cultures, Mesothelioma; settings: 7 patients analyzed, 72 h
Description: as §4

[8] = system: primary human tumor cell cultures, PMP (Pseudomyxoma Peritonei); settings: 50 patients analyzed, 72 h
Description: as §4

[9] = system: primary human tumor cell cultures, Colorectal cancer; settings: 25 patients analyzed, 72 h
Description: as §4

[10] = system: primary human tumor cell cultures, Appendix; settings: 4 patients analyzed, 72 h
Description: as §4

[11] = system: primary human tumor cell cultures, Renal; settings: 13 patients analyzed, 72 h
Description: as §4

[12] = system: various cell lines (CCRF-CEM, RPMI-8226, A2780, FaDu, HT29, MCF7, HL-60) and primary human tumor cell cultures; settings: FIG. 3
Description: as §4

[13] = system: primary human tumor cell cultures, Ovarian; settings: 30 patients analyzed, 72 h
Description: as §4

[14] = system: primary human tumor cell cultures, Small bowel; settings: 1 patient analyzed, 72 h
Description: as §4

[15] = system: primary human tumor cell cultures, Pancreas; settings: 1 patient analyzed, 72 h
Description: as §4

RKO (Colon carcinoma) = assay: FMCA cytotoxicity, RKO; assay type: cell-based, human; settings: 72 h
Description: as §1, §2, §3

[16] = same sample re-analysed after 2 days

## C/C(=N\Nc1nnc2c(n1)[nH]c1c(C)cccc12)c1ccccn1 [Compound A, 2-[(1E,Z)-1-(2-{6-methyl-5H-[1,2,4]triazino[5,6-b]indole-3-yl}hydrazine-1-ylidene)ethyl]-pyridine]
[1]
  IC50: < 0.25 µM
[16]
  Z-isomer content: ~2%
  hydrolysis detected: ~1%
Sample preparation in 0.1% TFA/H2O, first analysis
  Z-isomer content: ~7%
HCT116 (Colon carcinoma)
  IC50: ~1 µM
[2]
  IC50: < 0.25 µM
[3]
  IC50: ~20 µM
[4]
  IC50: < 0.25 µM
[5]
  activity on cancer cell lines: strong activity
[6]
  IC50: 6.9 µM
[7]
  IC50: 12 µM
[8]
  IC50: 9.4 µM
[9]
  IC50: 11 µM
[10]
  IC50: 21 µM
[11]
  IC50: 164 µM
[12]
  anti-cancer activity: broad anti-cancer activity
[13]
  IC50: 5.7 µM
[14]
  IC50: 5.4 µM
[15]
  IC50: 6 µM
RKO (Colon carcinoma)
  IC50: < 0.25 µM
